Laboratory results as given in ChEMBL document CHEMBL5532668, “Pitfalls and Considerations in Determining the Potency and Mutant Selectivity of Covalent Epidermal Growth Factor Receptor Inhibitors” (J Med Chem, 2024).

What was measured:
[1] = biological target: Epidermal growth factor receptor (Homo sapiens, UniProt P00533, L858R); assay: Binding affinity to EGFR L858R mutant (unknown origin) assessed as apparent inhibition constant in presence of ATP by TR-FRET assay; conditions: read-out: Ki(app)
[2] = tested on: Epidermal growth factor receptor (Homo sapiens), P00533 [L858R]
[3] = tested on: Epidermal growth factor receptor (Homo sapiens), P00533 [L858R]; remark: listed apart in the source
Homo sapiens = organism: Homo sapiens; assay: Selectivity ratio, ratio of Ki for human wild type EGFR to Ki for EGFR L858R mutant (unknown origin)
[4] = tested on: Epidermal growth factor receptor (Homo sapiens), P00533 [L858R,T790M]
Epidermal growth factor receptor (Homo sapiens), P00533 [L858R,T790M], sequence (P00533 whole entry T790M/L858R, looked up): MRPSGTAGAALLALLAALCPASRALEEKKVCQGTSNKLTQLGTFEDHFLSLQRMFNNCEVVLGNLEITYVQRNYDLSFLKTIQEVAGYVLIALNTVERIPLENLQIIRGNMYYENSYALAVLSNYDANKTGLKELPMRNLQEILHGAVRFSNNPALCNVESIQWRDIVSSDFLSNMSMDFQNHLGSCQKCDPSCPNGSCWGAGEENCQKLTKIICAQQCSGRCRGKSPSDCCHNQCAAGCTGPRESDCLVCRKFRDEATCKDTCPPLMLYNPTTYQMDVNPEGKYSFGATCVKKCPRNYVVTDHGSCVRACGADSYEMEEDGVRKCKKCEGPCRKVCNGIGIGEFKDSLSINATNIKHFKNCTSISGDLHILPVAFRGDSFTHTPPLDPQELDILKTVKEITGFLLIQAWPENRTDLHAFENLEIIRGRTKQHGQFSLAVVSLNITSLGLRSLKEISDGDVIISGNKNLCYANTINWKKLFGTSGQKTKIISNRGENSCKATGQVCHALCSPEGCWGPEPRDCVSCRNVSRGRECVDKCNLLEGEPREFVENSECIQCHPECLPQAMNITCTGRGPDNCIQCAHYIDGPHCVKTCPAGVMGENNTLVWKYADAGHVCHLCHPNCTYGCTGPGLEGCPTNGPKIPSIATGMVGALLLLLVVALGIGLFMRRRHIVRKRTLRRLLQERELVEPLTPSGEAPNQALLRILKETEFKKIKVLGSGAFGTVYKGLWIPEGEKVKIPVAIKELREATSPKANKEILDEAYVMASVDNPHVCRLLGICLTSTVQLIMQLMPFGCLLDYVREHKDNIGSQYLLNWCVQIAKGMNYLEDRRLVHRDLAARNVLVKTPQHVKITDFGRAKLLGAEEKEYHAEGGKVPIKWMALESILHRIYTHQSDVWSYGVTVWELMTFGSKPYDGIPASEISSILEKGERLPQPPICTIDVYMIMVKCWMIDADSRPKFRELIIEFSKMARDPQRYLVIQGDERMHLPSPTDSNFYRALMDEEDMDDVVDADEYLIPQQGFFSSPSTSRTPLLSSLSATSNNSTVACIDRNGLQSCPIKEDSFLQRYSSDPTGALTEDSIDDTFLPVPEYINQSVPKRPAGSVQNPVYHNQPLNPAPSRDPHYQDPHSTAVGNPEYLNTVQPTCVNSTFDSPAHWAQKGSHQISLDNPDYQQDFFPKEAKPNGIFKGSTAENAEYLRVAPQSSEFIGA

Epidermal growth factor receptor (Homo sapiens), P00533 [L858R], sequence (P00533 whole entry L858R): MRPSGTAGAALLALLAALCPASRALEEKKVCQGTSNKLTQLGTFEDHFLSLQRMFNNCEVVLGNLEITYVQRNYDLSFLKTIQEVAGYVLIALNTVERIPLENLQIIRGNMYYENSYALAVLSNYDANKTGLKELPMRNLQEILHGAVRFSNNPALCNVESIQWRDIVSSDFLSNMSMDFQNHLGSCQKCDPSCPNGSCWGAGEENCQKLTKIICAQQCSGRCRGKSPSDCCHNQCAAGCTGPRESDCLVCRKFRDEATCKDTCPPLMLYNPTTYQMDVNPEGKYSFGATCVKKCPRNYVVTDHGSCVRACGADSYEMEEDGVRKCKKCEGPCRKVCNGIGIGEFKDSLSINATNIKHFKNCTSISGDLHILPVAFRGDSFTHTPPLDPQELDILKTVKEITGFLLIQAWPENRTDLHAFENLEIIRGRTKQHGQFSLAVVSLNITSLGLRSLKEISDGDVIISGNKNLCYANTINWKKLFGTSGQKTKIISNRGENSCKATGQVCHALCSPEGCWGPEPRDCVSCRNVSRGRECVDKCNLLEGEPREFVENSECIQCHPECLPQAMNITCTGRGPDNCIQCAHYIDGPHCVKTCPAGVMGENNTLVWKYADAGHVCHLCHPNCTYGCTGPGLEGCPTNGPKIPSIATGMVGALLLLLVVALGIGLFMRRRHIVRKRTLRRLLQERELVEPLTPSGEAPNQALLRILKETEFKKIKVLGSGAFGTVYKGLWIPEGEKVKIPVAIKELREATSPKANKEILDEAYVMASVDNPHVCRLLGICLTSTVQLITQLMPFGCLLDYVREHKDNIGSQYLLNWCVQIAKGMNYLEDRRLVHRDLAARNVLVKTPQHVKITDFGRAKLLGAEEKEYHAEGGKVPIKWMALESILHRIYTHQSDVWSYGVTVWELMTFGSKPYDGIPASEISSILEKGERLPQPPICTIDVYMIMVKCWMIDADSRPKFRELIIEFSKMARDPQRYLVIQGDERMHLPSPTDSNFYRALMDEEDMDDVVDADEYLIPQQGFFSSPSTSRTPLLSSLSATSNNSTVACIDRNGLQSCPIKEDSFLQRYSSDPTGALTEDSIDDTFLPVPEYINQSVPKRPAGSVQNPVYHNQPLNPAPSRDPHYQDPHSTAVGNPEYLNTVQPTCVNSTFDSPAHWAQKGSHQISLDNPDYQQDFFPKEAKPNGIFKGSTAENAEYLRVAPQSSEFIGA
Epidermal growth factor receptor, sequence (P00533 25-1210 L858R limits assumed): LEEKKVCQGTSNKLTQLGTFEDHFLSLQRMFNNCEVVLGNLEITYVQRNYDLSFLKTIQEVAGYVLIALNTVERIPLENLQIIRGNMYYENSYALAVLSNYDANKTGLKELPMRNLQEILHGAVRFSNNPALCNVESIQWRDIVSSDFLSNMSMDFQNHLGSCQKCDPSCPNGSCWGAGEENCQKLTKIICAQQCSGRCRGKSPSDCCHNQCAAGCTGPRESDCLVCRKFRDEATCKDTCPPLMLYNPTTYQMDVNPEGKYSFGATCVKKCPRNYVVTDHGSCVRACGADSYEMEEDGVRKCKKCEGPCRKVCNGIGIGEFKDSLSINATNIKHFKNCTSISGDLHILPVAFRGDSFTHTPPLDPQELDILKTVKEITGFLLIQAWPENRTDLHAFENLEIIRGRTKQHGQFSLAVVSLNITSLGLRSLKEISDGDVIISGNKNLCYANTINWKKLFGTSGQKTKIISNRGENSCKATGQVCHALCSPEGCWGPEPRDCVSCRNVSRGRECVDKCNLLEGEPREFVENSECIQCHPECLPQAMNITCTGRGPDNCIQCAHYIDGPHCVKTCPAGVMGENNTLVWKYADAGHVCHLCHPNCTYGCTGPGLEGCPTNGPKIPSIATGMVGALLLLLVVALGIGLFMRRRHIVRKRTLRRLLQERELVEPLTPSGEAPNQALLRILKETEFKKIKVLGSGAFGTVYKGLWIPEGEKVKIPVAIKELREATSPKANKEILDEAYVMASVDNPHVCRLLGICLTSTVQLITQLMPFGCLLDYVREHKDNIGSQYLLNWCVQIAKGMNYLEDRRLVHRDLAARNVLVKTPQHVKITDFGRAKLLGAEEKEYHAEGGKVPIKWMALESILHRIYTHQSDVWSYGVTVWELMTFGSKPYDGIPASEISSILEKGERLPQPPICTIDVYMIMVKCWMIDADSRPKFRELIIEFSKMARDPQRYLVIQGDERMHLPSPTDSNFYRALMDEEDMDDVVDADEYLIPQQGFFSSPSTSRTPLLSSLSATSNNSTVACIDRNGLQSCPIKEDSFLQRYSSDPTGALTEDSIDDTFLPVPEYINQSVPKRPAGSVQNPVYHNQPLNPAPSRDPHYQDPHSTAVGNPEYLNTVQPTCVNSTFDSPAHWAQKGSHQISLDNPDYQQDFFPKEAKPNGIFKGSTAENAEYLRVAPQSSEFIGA

Ki [1]: 4.68 nM
Kinact [2]: 5.88 10^-3/s
Kinact [3]: 0.00971 s⁻¹
Ratio Ki (Homo sapiens): 0.358
Kinact [4]: 3.92 10^-3/s
SMILES: C=CC(=O)Nc1cc(Nc2nccc(-n3cc(CN(C)C)c(-c4ccccc4)n3)n2)c(OC)cc1N1CCOCC1 [LAZERTINIB]
